Patent publication US20220193120A1, “MOLECULAR HYDROGEN-CONTAINING COMPOSITION FOR MAINTAINING LUNG FUNCTION IN HUMAN LUNG CANCER AND/OR IMPROVING REDUCTION IN LUNG FUNCTION ATTRIBUTED TO HUMAN LUNG CANCER” (MiZ Company Limited, priority 2020, published 2022)
Like-named read-outs stand apart in the source and are kept apart here.

Experiments:
[1] = system: lung function of subject having lung cancer
Description: On Oct. 21, 2020, inhalation of the hydrogen gas was started using a hydrogen gas generator (Jobs-α, hydrogen concentration: about 4% to 5%, the amount of 100% hydrogen to be generated: 200 ml/min) manufactured by MiZ Company Limited (Ofuna, Kamakura). […]

[2] = system: lung function of subject having lung cancer; details: one month from start of inhalation, hydrogen about 1% to 2%, 3 to 6 hours per day
Description: A person had surgery of colorectal cancer in 2018. Thereafter, the person was periodically examined for follow-up. […] From the day of examination, the person was treated with hydrogen gas inhalation for 3 to 6 hours per day using a hydrogen gas generator (Jobs-mini, hydrogen concentration: about 1% to 2%, the amount of 100% hydrogen to be generated: 30 ml/min).

Lewis Lung Carcinoma = details: inhalation of low concentration (3.5%) hydrogen; Japanese Patent No. 6781485, Example 1; cited from earlier work
[3] = room temperature, normal pressure; also printed as 1.6 mg/L; cited from earlier work
[4] = Week 2, hydrogen about 4% to 5%, at least 3 hours per day
[5] = Week 3, hydrogen about 4% to 5%, at least 3 hours per day

[HH] [hydrogen gas, molecular hydrogen]
tolerability of hydrogen gas inhalation ([1]; Week 1, inhalation 5 hours per day, hydrogen concentration about 4% to 5%, person stage IV lung cancer): inhaled comfortably with no discomfort | amount of oxygen needed for oxygen inhalation [1, 4]: reduced | breathing [1, 4]: became easier | lung X-ray image change [1, 4]: any significant change was not observed | state of breathing [1, 4]: became better | amount of oxygen needed for oxygen inhalation [1, 5]: reduced compared to that in the previous week | complicating inflammation reaction such as colitis [1, 5]: improved | lung ventilatory function (doctors' determination from CT image and oxygen needed) [1, 5]: improved compared to that one month ago | shadows derived from pneumonia in chest CT image [1, 5]: completely disappeared | breathing function [2]: normal values again | lung capacity [2]: normal values again | tumor markers [2]: normal numeric values again | lung cancer at pre-surgery examination ([2]; person): disappeared | metastasis (Lewis Lung Carcinoma): suppressed | concentration of hydrogen dissolved in water [3]: approximately 1.6 ppm
